17 compounds from ChEMBL document CHEMBL1909046, “DrugMatrix in vitro pharmacology data” can be followed below.

In one test the target is T1, Calcitonin receptor (Homo sapiens, UniProt P30988).
T1 sequence (P30988 whole entry): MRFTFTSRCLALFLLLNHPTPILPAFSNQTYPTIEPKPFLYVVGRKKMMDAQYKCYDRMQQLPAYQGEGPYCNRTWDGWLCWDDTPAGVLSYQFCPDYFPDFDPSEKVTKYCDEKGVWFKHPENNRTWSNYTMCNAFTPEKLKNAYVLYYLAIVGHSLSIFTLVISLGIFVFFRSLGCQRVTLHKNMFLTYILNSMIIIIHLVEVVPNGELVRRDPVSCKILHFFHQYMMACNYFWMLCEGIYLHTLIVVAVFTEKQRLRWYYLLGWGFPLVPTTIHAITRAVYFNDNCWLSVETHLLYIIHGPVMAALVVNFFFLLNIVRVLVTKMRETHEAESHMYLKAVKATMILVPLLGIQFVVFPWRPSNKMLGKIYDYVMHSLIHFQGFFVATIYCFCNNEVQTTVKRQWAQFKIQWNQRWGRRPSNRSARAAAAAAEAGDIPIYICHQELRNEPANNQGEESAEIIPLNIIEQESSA
In kind it is cell membranes, Membrane. Conditions: t47d.

For test [1], the target named is 5-hydroxytryptamine receptor 6 (Homo sapiens, UniProt P50406). In kind it is cell membranes, HeLa, Membrane.
Sequence of 5-hydroxytryptamine receptor 6 (P50406 whole entry): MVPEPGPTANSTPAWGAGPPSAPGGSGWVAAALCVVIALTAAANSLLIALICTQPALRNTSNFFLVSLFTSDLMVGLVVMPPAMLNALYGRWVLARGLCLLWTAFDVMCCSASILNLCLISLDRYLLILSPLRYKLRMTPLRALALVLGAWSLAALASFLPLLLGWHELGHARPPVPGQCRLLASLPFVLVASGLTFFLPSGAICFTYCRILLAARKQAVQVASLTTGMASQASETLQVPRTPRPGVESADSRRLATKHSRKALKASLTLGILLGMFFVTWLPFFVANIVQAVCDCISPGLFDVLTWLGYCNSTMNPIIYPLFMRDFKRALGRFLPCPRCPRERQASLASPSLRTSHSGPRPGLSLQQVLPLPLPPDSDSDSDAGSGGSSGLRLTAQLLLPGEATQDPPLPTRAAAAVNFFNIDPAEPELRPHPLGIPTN
The target in the next test is T2, Endothelin-1 receptor (Homo sapiens, UniProt P25101).
T2 sequence (P25101 whole entry): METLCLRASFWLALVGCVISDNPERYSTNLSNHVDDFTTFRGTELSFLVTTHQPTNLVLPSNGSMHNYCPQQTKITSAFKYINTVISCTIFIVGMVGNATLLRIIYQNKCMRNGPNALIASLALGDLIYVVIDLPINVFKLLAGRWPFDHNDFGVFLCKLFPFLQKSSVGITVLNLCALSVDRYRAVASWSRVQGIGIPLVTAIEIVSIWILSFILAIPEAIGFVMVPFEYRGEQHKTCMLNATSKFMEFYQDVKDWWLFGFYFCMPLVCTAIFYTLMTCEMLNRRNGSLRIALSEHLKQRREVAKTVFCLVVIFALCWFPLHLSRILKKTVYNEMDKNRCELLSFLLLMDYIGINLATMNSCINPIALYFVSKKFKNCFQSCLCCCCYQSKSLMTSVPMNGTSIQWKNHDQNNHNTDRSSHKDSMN
In kind it is cell membranes, Membrane. Conditions: cho-k1.

Another test addresses Glycine receptor (Rattus norvegicus, UniProt P22771+P24524+P07727+P20781). In kind it is cell membranes, Wistar, Spinal cord, Membrane.
In the next test the target is T3, Leukotriene C4 synthase (Cavia porcellus, UniProt A6XA80).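 Note: enzyme inhibition assay of leukotriene C4 synthase, using LTA4 as the substrate.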
T3 sequence (A6XA80 whole entry): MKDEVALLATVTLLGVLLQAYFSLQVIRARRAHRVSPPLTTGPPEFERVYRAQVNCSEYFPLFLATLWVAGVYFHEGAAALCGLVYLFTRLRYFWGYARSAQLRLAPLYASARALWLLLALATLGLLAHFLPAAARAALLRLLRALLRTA
Briefly: biochemical. In kind it is tissue-based, Lung.

Test [2] concerns the target T4, Neuropeptide Y receptor type 1 (Homo sapiens, UniProt P25929).
T4 sequence (P25929 whole entry): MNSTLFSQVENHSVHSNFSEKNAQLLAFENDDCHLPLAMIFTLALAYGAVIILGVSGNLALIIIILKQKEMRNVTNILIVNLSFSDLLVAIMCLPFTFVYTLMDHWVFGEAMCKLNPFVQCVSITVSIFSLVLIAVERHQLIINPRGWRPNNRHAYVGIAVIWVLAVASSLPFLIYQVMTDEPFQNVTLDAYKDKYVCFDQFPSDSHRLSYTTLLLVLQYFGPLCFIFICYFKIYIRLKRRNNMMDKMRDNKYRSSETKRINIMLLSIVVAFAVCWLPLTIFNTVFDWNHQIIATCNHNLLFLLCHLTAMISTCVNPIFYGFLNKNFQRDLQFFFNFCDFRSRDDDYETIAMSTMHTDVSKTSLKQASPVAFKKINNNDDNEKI
It counts as cell membranes, Membrane. The note with it: sk-n-mc.

The next test addresses Nitric oxide synthase 1 (Rattus norvegicus, UniProt P29476). In kind it is tissue-based, Cerebellum.
In test [3] the target is Matrix metalloproteinase-9 (Homo sapiens, UniProt P14780). It counts as cell-based.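 Note: inhibition of isolated MMP-9 enzyme activity toward a synthetic peptide substrate, from the DrugMatrix protease screening panel.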
Sequence of Matrix metalloproteinase-9 (P14780 whole entry): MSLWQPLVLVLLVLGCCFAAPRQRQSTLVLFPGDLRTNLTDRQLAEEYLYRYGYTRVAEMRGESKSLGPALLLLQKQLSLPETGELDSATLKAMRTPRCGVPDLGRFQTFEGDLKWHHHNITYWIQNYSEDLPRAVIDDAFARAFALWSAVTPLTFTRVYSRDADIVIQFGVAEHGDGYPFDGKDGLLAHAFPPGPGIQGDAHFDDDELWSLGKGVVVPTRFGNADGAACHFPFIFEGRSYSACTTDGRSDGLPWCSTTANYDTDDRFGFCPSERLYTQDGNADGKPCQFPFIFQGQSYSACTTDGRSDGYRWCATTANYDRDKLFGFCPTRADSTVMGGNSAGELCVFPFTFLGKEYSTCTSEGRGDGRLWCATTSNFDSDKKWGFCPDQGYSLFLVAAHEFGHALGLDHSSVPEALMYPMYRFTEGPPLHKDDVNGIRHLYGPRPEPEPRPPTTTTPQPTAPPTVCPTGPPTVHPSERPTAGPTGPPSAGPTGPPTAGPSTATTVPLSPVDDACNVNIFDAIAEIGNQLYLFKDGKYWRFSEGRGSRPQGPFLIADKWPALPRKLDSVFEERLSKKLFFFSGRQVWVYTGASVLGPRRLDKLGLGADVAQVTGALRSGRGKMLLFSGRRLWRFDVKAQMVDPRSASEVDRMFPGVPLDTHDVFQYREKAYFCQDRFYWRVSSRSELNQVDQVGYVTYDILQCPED

pIC50, pKi: −log10 of the molar value.
Note: in other assays of this panel Not Active means under 50% inhibition at 10 µM.

Sequence of Nitric oxide synthase 1 (P29476 whole entry): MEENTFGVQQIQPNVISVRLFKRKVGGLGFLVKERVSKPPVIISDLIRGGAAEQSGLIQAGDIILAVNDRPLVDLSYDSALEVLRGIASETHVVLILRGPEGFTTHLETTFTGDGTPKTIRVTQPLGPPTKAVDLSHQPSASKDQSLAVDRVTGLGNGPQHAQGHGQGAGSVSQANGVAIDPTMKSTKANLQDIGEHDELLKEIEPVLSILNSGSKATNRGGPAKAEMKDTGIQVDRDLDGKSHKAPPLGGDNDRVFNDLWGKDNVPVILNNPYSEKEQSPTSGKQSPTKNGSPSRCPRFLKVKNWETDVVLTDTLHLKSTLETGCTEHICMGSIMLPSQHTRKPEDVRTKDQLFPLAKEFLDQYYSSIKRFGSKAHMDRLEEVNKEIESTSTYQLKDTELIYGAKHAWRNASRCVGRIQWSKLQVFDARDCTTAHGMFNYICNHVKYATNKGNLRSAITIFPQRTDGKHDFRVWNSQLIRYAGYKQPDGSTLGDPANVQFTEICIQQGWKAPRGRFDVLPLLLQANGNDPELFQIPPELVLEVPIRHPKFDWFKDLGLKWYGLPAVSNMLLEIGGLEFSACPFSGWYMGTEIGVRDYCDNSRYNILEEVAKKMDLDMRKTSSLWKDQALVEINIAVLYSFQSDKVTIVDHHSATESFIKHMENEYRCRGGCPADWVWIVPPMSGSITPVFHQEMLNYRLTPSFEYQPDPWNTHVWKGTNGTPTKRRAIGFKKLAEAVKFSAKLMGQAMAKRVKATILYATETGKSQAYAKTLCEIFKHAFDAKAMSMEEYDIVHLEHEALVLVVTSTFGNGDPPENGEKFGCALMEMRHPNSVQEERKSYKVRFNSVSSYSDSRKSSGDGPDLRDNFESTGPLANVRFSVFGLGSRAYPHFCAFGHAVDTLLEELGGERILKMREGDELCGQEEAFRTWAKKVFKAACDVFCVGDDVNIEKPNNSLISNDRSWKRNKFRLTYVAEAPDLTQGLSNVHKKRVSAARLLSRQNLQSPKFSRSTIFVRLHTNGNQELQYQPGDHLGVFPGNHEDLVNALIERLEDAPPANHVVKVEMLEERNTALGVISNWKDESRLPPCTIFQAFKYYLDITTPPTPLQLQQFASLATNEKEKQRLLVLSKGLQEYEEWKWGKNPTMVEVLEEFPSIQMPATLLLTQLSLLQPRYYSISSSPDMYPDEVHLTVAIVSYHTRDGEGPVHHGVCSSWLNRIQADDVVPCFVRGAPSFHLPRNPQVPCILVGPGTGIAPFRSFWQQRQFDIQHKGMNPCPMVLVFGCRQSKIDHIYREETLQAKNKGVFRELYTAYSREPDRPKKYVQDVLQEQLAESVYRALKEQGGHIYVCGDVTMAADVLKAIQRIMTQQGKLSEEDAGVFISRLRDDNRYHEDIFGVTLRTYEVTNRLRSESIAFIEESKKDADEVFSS

In the case of `CCC(C)(C)C(=O)O[C@H]1C[C@@H](C)C=C2C=C[C@H](C)[C@H](CC[C@@H]3C[C@@H](O)CC(=O)O3)[C@H]21` [SIMVASTATIN], the IC50 entry (on Calcitonin receptor; in test [1] (hela); on Endothelin-1 receptor; at Glycine receptor; at Leukotriene C4 synthase; in test [2]) was “Not Active” each time. Besides, the IC50 entry (against Nitric oxide synthase 1; in test [3]) was “Not Active” in each case.

In the case of LEAD(IV) ACETATE, the IC50 entry (on Calcitonin receptor; in test [1] (hela); against Endothelin-1 receptor; at Glycine receptor; against Leukotriene C4 synthase; in test [2]) was “Not Active” throughout. Also, the IC50 result (on Nitric oxide synthase 1; in test [3]) was “Not Active” throughout. Further, the Ki result (at Calcitonin receptor; in test [1] (hela); at Endothelin-1 receptor; at Glycine receptor; on Leukotriene C4 synthase; in test [2]) was “Not Active” each time. For the same compound, the Ki result (on Nitric oxide synthase 1; in test [3]) was “Not Active” each time.

With `CCN1CCCC1CNC(=O)c1cc(S(N)(=O)=O)ccc1OC` (stereo not given) [SULPIRIDE], the IC50 result (on Calcitonin receptor; in test [1] (hela); against Endothelin-1 receptor; against Glycine receptor; at Leukotriene C4 synthase; in test [2]) was “Not Active” throughout. Also, the IC50 result (against Nitric oxide synthase 1; in test [3]) was “Not Active” in each case.

`CC[C@H](C)C(=O)O[C@H]1CCC=C2C=C[C@H](C)[C@H](CC[C@@H]3C[C@@H](O)CC(=O)O3)[C@H]21` [MEVASTATIN]: the IC50 entry (on Calcitonin receptor; in test [1] (hela); on Endothelin-1 receptor; against Glycine receptor; against Leukotriene C4 synthase; in test [2]) was “Not Active” each time. The IC50 entry (on Nitric oxide synthase 1; in test [3]) was “Not Active” each time.

With `CN1C[C@H](CNC(=O)OCc2ccccc2)C[C@@H]2c3cccc4c3c(cn4C)C[C@H]21` [METERGOLINE], the IC50 entry (at Calcitonin receptor; against Endothelin-1 receptor; at Glycine receptor; on Leukotriene C4 synthase; in test [2]; against Nitric oxide synthase 1) was “Not Active” each time. The IC50 entry in test [3] was “Not Active”. Also, in test [1] (read-out: IC50), the pIC50 is 7.55. For the same compound, the pKi in test [1] (read-out: Ki) was 7.89.

For `Oc1ccc(/C=C/c2cc(O)cc(O)c2)cc1` [RESVERATROL], the IC50 entry (on Calcitonin receptor; in test [1] (hela); at Endothelin-1 receptor; against Glycine receptor; against Leukotriene C4 synthase; in test [2]) was “Not Active” each time. Further, the IC50 entry (on Nitric oxide synthase 1; in test [3]) was “Not Active” throughout.

As for `CC1=C(/C=C/C(C)=C/C=C/C(C)=C/C(=O)O)C(C)(C)CCC1` [TRETINOIN], the IC50 entry (at Calcitonin receptor; in test [1] (hela); against Endothelin-1 receptor; against Glycine receptor; on Leukotriene C4 synthase; in test [2]) was “Not Active” each time. Also, the IC50 result (at Nitric oxide synthase 1; in test [3]) was “Not Active” each time.

On to `CC[C@@]1(O)C(=O)OCc2c1cc1n(c2=O)Cc2cc3c(CN(C)C)c(O)ccc3nc2-1` [TOPOTECAN], for which the IC50 result (on Calcitonin receptor; in test [1] (hela); at Endothelin-1 receptor; against Glycine receptor; on Leukotriene C4 synthase; in test [2]) was “Not Active” in each case. Also, the IC50 entry (against Nitric oxide synthase 1; in test [3]) was “Not Active” throughout.

For the compound `O=C(OC[C@H]1O[C@@H](OC(=O)c2cc(O)c(O)c(OC(=O)c3cc(O)c(O)c(O)c3)c2)[C@H](OC(=O)c2cc(O)c(O)c(OC(=O)c3cc(O)c(O)c(O)c3)c2)[C@@H](OC(=O)c2cc(O)c(O)c(OC(=O)c3cc(O)c(O)c(O)c3)c2)[C@@H]1OC(=O)c1cc(O)c(O)c(OC(=O)c2cc(O)c(O)c(O)c2)c1)c1cc(O)c(O)c(OC(=O)c2cc(O)c(O)c(O)c2)c1` [TANNIC ACID], the IC50 result (on Calcitonin receptor; in test [1] (hela); against Endothelin-1 receptor; at Glycine receptor; in test [2]; at Nitric oxide synthase 1) was “Not Active” each time. Also, the IC50 entry in test [3] was “Not Active”. Besides, on Leukotriene C4 synthase (read-out: IC50), the negative-log IC50 (pIC50) was 5.57.

For `CC(Cl)(Cl)Cl` [TRICHLOROETHANE], the IC50 result (on Calcitonin receptor; in test [1] (hela); against Endothelin-1 receptor; on Glycine receptor; at Leukotriene C4 synthase; in test [2]) was “Not Active” throughout. The IC50 result (at Nitric oxide synthase 1; in test [3]) was “Not Active” in each case.

For the compound `C=CCc1ccc2c(c1)OCO2` [SAFROLE], the IC50 result (on Calcitonin receptor; in test [1] (hela); against Endothelin-1 receptor; at Glycine receptor; on Leukotriene C4 synthase; in test [2]) was “Not Active” each time. The IC50 result (against Nitric oxide synthase 1; in test [3]) was “Not Active” throughout.

For `O=C1CC[C@@]2(O)[C@H]3Cc4ccc(O)c5c4[C@@]2(CCN3CC2CC2)[C@H]1O5` [NALTREXONE], the IC50 result (on Calcitonin receptor; in test [1] (hela); against Endothelin-1 receptor; against Glycine receptor; at Leukotriene C4 synthase; in test [2]) was “Not Active” each time. The IC50 entry (against Nitric oxide synthase 1; in test [3]) was “Not Active” throughout.

With `CN1C(=O)OC(C)(C)C1=O` [TRIMETHADIONE], the IC50 result (at Calcitonin receptor; in test [1] (hela); against Endothelin-1 receptor; on Glycine receptor; against Leukotriene C4 synthase; in test [2]) was “Not Active” in each case. Also, the IC50 result (on Nitric oxide synthase 1; in test [3]) was “Not Active” in each case.

Regarding `CC(O)C(=O)O` (stereo not given) [LACTIC ACID], the IC50 result (on Calcitonin receptor; in test [1] (hela); on Endothelin-1 receptor; against Glycine receptor; on Leukotriene C4 synthase; in test [2]) was “Not Active” throughout. Further, the IC50 result (against Nitric oxide synthase 1; in test [3]) was “Not Active” in each case.

In the case of `CS(=O)(=O)c1ccc(C2=C(c3ccccc3)C(=O)OC2)cc1` [ROFECOXIB], the IC50 entry (at Calcitonin receptor; in test [1] (hela); against Endothelin-1 receptor; at Glycine receptor; at Leukotriene C4 synthase; in test [2]) was “Not Active” throughout. For the same compound, the IC50 result (on Nitric oxide synthase 1; in test [3]) was “Not Active” throughout.

For the compound `C[N+]1(C)[C@@H]2C[C@@H](OC(=O)[C@H](CO)c3ccccc3)C[C@H]1[C@@H]1O[C@@H]12.[Br-]` [METHSCOPOLAMINE BROMIDE], the IC50 entry (on Calcitonin receptor; in test [1] (hela); at Endothelin-1 receptor; against Glycine receptor; against Leukotriene C4 synthase; in test [2]) was “Not Active” throughout. In addition, the IC50 result (at Nitric oxide synthase 1; in test [3]) was “Not Active” throughout.

On to `Cc1nnc(NS(=O)(=O)c2ccc(N)cc2)s1` [SULFAMETHIZOLE], for which the IC50 entry (at Calcitonin receptor; in test [1] (hela); at Endothelin-1 receptor; against Glycine receptor; against Leukotriene C4 synthase; in test [2]) was “Not Active” each time. The IC50 result (against Nitric oxide synthase 1; in test [3]) was “Not Active” throughout.
